Values joined by “and” are separate entries in the source; they are usually repeats but may differ in a detail not shown here. Equal entries are not always repeated.
Columns and labels:
[1] = target: wt-PKR (Homo sapiens, UniProt P30613); test: Enzyme assay of PKR kinetics and activation (Example 3); assay type: biochemical; conditions: PEP at or below Km
Procedure: The ability of Compound 1 to activate PKR in enzyme-based assays was measured.
Tests were conducted in the presence and absence of fructose-1,6-bisphosphate (FBP), a known allosteric activator of PKR.

[2] = system: ATP blood levels; test: Phase 1: blood ATP levels in SCD patients; assay type: in vivo, human; conditions: single 700 mg dose (FIG. 54A)
Procedure: In this study, SAD/MAD cohorts are randomized (3 to 1) to receive Compound 1 or placebo (P). Compound 1 was evaluated first in 4 healthy SAD cohorts and 4 healthy MAD (14-day dosing period) cohorts. Based on the safety, and PK/PD profile from HS, Compound 1 is then evaluated in 1 SCD SAD cohort and 2 SCD MAD cohorts. Specifically, based on the safety and pharmacokinetic/pharmacodynamics (PK/PD) profile in healthy volunteer studies, Compound 1 is evaluated in patients (pts) with SCD, first in a single dose (SD or SAD) cohort and then in multiple-dose (MD or MAD) cohorts (14-day and 12-week). Safety assessments include AEs, vital signs, ECGs and laboratory parameters. PK/PD blood sampling was performed on Day 1 (SAD/MAD) and Day 14 (MAD) and up to 72 h after the last dose and at the end-of-study visit. […]
The following table reports the mean percentage change in ATP blood levels, relative to baseline, measured over time in SCD patients after a single dose of Compound 1 (700 mg):
ATP levels were increased from baseline in patients receiving Compound 1, resulting in improved RBC function and reduced hemoloysis. The following table reports the mean percentage change in ATP blood levels, relative to baseline, measured over time after the first dose on days 1 and 14 in SCD patients who received daily doses of Compound 1 (300 mg QD) for 14 days: […]

[3] = target: T1, CYP1A2 (Homo sapiens, UniProt P05177); test: Single substrate DDI assay, reversible CYP inhibition in human liver microsomes; assay type: in vitro ADME
T1 construct: from tissue; host or cells: human liver microsomes
T1 sequence (P05177 1-516): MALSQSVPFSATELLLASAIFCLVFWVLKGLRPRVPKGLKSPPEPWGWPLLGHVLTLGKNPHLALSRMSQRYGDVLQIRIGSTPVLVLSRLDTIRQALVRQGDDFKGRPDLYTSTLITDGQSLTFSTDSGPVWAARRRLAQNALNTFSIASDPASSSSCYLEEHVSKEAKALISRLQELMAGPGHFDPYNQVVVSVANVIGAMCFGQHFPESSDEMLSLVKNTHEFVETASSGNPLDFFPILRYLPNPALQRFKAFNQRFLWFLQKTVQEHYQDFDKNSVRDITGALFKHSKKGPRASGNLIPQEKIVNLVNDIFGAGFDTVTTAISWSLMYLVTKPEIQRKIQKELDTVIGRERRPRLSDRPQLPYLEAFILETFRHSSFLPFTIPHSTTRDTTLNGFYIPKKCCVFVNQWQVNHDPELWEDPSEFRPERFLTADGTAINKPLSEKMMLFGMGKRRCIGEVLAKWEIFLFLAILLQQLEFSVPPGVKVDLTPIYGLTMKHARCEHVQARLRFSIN

[4] = target: T2, CYP2D6 (Homo sapiens, UniProt P10635); test: as above; assay type: in vitro ADME
T2 construct: from tissue; host or cells: human liver microsomes

[5] = system: CYP3A4; test: CYP mRNA induction in cultured human hepatocytes; assay type: in vitro ADME; conditions: donors, HCS-40 individually

T2 sequence (P10635 whole entry): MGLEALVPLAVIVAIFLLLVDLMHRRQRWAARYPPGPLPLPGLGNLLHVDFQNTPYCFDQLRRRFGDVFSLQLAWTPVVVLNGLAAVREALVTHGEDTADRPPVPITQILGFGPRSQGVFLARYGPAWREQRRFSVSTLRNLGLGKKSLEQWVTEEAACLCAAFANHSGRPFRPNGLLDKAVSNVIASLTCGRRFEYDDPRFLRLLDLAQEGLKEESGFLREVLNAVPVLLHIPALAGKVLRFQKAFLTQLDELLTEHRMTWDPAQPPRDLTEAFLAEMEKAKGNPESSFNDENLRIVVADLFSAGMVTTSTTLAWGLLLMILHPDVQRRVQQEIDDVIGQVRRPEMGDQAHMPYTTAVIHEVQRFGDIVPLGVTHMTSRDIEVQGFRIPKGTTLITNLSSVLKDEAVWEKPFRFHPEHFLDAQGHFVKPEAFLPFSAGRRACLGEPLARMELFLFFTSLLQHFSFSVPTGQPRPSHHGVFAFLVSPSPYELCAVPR
wt-PKR, sequence (P30613 whole entry): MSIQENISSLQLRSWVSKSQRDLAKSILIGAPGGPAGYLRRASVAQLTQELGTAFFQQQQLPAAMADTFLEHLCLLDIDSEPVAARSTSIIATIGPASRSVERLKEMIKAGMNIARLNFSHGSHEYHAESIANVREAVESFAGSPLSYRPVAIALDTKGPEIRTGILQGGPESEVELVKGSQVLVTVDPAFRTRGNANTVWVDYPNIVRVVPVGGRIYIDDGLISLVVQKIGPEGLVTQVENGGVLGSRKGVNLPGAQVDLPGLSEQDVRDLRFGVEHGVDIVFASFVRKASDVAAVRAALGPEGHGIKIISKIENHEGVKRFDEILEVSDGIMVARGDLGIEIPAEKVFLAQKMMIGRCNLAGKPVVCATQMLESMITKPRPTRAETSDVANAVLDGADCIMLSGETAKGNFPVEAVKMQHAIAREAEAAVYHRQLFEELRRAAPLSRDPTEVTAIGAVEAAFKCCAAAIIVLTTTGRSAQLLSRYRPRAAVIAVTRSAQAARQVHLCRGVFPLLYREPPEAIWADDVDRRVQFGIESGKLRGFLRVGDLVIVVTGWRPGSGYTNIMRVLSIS

In the case of `O=C([C@H](CO)c1ccccc1)N1CC2=C(C1)CN(S(=O)(=O)c1cnc3c(c1)OCCO3)C2` (single isomer, unassigned) [Compound 1], the AC50 [1] is reported as under 0.1 µM, the “lag of maximum ATP increase behind maximum plasma concentration” value [2] is reported as “at least 24 hours” and the IC50 [3] is reported as over 30 µM. The IC50 [4] was over 30 µM, the “mRNA Fold Induction CYP3A4” value ([5]; 0.033 μM) was 0.940 fold and 1.09 fold and 1.25 fold and the “mRNA Fold Induction CYP3A4” value ([5]; 0.1 μM) was 1.13 fold and 0.875 fold and 0.889 fold. The “mRNA Fold Induction CYP3A4” value ([5]; 0.33 μM) was 1.11 fold and 1.18 fold and 0.836 fold, the “mRNA Fold Induction CYP3A4” value ([5]; 1 μM) was 1.41 fold and 1.07 fold and 1.18 fold and the “mRNA Fold Induction CYP3A4” value ([5]; 3.3 μM) was 1.84 fold and 1.25 fold and 1.62 fold. For the same compound, the “mRNA Fold Induction CYP3A4” value ([5]; 10 μM) was 3.60 fold and 2.23 fold and 1.29 fold.
